Usually IC50 stands for the concentration needed to halve the response being measured.

Consider 4 compounds from article PMC10052652 (Molecules, 2023).

Test [1] can be described thus: DPPH radical scavenging assay. The protocol:
DPPH• (1-1-diphenyl 2-picryl hydrazyl) assay
This method is based on the spectrophotometric assay using the stable radical, DPPH•, as a reagent. First, 20 µL of each sample (4 mg/mL) was mixed with 180 µL of 0.1 mM DPPH• in methanol, in plates, after an incubation of 25 min in the dark. Absorbance was measured at 517 nm. Ascorbic acid was used as the reference compound. The radical-scavenging activities of molecules, expressed as a percentage inhibition of DPPH•, were calculated according to the following formula: Inhibition (%) = [(A control − A sample)/A control] × 100 where A is the absorbance determined at 517 nm. The absorbance of the solvent and DPPH• radical without the molecule was measured as the control.
A general note: The DPPH test is a chemical assay of radical scavenging.

A short description of test [2]: ABTS radical cation scavenging assay. The note with it: for ABTS Assay %: at 100 µM. The protocol: ABTS (2,2′-azinobis-3-ethylbenzothiazoline-6-sulfonate) assay
The radical scavenging capacity of antioxidants for the ABTS radical cation was evaluated following this method: ABTS was prepared by adding 7 mM solution of ABTS at pH 7.4 (5 mM NaH2PO4, 5 mM Na2HPO4, and 154 mM NaCl) with 2.5 mM potassium persulfate. The mixture was stored at room temperature for 16 h in the dark before use and prepared […]. Once diluted with persulfate buffer, the absorbance of the mixture yielded an absorbance value of 0.70 ± 0.05 units at 734 nm. Then, 20 µL of each tested sample was mixed with fresh ABTS solution (180 µL), then the absorbance was measured 6 min after the initial mixing. Ascorbic acid was used as a standard. The capacity of free radical scavenging was expressed as a percentage of the inhibition values. The percentage of inhibition is calculated using the same expression employed in the DPPH assay.

In test [3] the target is T1, acetylcholinesterase (AChE) (Homo sapiens, UniProt P22303). Description: biochemical. The method, then: The enzymatic activity was assessed via a modified colorimetric Ellman′s method. First, 50 µL of Tris-HCl buffer (pH 8), 25µL of a buffer solution of the sample (50 µg/mL), and 25 µL of an acetylcholinesterase (AChE) enzyme solution containing 2.8 U/mL were mixed. A reaction was then initiated via the addition of 125 µL of 3 mM […]. After incubation for 15 min at 25 °C, 25 µL of a solution of iodide acetylthiocholine15 mM was added to a 96-well microplate. […] Inhibition (%) was calculated in the following way: Inhibition (%) = [(A control − A sample)/A control] × 100, where (A sample) is the absorbance of the molecule containing the reaction and (A control) is the absorbance of the reaction control. Tests were carried out in triplicate.
T1 sequence (P22303 32-614, species assumed): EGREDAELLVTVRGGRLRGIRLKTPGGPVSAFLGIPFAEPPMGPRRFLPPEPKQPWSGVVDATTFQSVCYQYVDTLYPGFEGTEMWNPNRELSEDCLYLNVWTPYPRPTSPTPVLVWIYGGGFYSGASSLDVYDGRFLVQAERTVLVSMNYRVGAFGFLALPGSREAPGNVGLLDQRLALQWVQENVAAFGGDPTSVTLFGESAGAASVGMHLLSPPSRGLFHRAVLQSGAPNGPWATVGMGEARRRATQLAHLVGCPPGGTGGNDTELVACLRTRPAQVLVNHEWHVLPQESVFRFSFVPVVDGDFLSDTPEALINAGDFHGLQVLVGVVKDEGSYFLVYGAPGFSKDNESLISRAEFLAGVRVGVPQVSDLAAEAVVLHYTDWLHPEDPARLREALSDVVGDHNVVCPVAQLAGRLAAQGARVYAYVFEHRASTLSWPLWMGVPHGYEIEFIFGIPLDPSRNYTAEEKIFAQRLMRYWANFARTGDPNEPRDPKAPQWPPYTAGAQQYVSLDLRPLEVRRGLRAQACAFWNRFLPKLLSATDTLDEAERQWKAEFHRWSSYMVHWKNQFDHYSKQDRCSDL

Test [4] concerns the target T2, superoxide dismutase (SOD) (Homo sapiens, UniProt P00441). Description: biochemical. The note with it: read-out: Anti SOD IC50. The method, then: Pyrogallol auto-oxidation due to oxygen in the air can be inhibited by an enzyme that is naturally present in the body: superoxide dismutase (SOD). Furthermore, variations in the pyrogallol auto-oxidation rate in the presence of SOD were evaluated. Tests were carried out in triplicate. The objective was to find an inhibitor of the auto-oxidation of pyrogallol in the presence of a SOD enzyme solution. Samples were tested at a concentration of 50 µg/mL, followed by incubation for 4 min at 25 °C. […] The self-oxidation of pyrogallol was evaluated in the absence of the enzyme. For this, 30 µL of pyrogallol was added to 120 µL of tris buffer (in place of the SOD) (pH 8.5), then followed by the same steps of incubating a positive control (without the molecule); this was performed in the presence of 5% of DMSO to evaluate the percentage of SOD inhibition activity on the auto-oxidation of pyrogallol.

Test [5] concerns the target T3, xanthine oxidase (XOD) (Homo sapiens, UniProt P47989). Briefly: biochemical. Particulars: read-out: Anti XOD IC50. The method, then: Anti-xanthine oxidase activity was assayed spectrophotometrically under aerobic conditions. First, 50 µL (50 µg/mL) of samples were added to 60 µL of phosphate buffer (pH 7.5) and 30 µL of xanthine oxidase enzyme solution (0.01 units/mL in phosphate buffer; pH 7.5). After pre-incubation at 25 °C for 15 min, the reaction was initiated by the addition of 60 µL of xanthine substrate solution (prepared in the same buffer). The assay mixture was incubated at 25 °C for 5 min. […] The assay was performed in triplicate. […] Tests were carried out in triplicate.

Another test relates to HCT116 cells. Description: Cytotoxic activity, MTT assay, HCT116. Type of test: cell-based, human. The note with it: Homo sapiens, HCT-116, 72 h, read-out: IC50 HCT116, MTT, 72 h. The method, then: (§1) The cancer cell lines used in this study were HCT116 (colorectal carcinoma), IGROV1 (ovarian cancer), OVCAR3 (ovarian cancer), and MCF7 (mammary gland/breast cancer). […] Cell lines were maintained in culture and were incubated at 37 °C in an incubator with 5% CO2 in a humidified atmosphere. All tests were established at 80% of confluence, and viability was estimated with a trypan blue exclusion assay.
(§2) The cytotoxic activities of molecules against cancer cell lines were evaluated using an MTT assay. The MTT colorimetric assay was performed using 96-well plates. Cells were seeded in a 96-well plate, at a concentration of 10 × 10^3 cells/well for HCT116 and 12 × 10^3 cells/well for MCF7, IGROV1, and OVAR. Adherent cells were dispatched and incubated at 37 °C overnight in a 5% CO2-enriched atmosphere. […] After that, the medium was removed, and cells were treated with 50 µL of 3-(4,5-dimethylthazolk-2-yl)-2,5-diphenyl tetrazolium bromide (MTT) solution (3 mg/mL in PBS) at 37 °C for 20 to 40 min. To dissolve the […], we added 80 µL of 100% DMSO. Optical density was measured at 540 nm. All tests were established in triplicate. […]
(Tetrazolium dyes change colour on reduction, which living cells bring about.)

Another test concerns MCF7 cells. Briefly: Cytotoxic activity, MTT assay, MCF7. The test is classed as cell-based, human. Particulars: Homo sapiens, MCF7, 72 h. The protocol: Optical density was measured at 540 nm. All tests were established in triplicate.
In the next test the test system is OVCAR-3 cells. Description: Cytotoxic activity, MTT assay, OVCAR-3. Type of test: cell-based. The note with it: Homo sapiens, OVCAR-3, 72 h, read-out: IC50 OVCAR-3. The method, then: as §1, §2
The next test relates to SKOV-3 cells. Description: Cytotoxic activity, MTT assay, SKOV-3. Type of test: cell-based, human. Particulars: Homo sapiens, SK-OV-3, 72 h, read-out: IC50 SKOV-3, MTT, 72 h.
In test [6] the target is T1, acetylcholinesterase (AChE). Type of test: biochemical. The note with it: at 100 µM.
The target in test [7] is T2, superoxide dismutase (SOD). The test is classed as biochemical. The note with it: at 100 µM.
Test [8] addresses T3, xanthine oxidase (XOD). The test is classed as biochemical. The note with it: at 100 µM.
The next test addresses T4, α-amylase (Homo sapiens, UniProt P04746).
T4 sequence (P04746 16-511): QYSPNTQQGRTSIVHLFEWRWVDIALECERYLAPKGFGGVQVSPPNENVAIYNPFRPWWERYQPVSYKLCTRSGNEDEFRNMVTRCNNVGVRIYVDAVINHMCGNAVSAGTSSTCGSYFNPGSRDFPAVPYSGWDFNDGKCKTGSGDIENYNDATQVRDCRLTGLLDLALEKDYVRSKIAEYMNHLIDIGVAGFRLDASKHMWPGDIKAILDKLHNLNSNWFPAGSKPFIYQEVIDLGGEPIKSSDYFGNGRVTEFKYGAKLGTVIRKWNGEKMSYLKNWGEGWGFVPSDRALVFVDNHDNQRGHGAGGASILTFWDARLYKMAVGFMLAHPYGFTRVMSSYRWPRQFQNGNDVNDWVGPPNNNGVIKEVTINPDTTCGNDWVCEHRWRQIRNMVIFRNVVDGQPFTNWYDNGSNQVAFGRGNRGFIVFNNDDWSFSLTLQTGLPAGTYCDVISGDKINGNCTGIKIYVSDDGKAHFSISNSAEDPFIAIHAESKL
Description: Anti-α-amylase activity (starch/DNS). The note with it: for Anti α-Amylase %: at 100 µM.

Each structure is given as a SMILES string. Read-outs that look alike come from different tables or passages of the source. Where only a bound is given, the exact number is not on record here.

T2 sequence (P00441 whole entry): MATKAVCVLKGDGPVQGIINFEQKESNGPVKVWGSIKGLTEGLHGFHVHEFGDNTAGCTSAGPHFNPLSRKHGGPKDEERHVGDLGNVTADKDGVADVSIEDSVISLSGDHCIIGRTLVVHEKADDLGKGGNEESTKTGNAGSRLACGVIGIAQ
T3 sequence (P47989 whole entry, species assumed): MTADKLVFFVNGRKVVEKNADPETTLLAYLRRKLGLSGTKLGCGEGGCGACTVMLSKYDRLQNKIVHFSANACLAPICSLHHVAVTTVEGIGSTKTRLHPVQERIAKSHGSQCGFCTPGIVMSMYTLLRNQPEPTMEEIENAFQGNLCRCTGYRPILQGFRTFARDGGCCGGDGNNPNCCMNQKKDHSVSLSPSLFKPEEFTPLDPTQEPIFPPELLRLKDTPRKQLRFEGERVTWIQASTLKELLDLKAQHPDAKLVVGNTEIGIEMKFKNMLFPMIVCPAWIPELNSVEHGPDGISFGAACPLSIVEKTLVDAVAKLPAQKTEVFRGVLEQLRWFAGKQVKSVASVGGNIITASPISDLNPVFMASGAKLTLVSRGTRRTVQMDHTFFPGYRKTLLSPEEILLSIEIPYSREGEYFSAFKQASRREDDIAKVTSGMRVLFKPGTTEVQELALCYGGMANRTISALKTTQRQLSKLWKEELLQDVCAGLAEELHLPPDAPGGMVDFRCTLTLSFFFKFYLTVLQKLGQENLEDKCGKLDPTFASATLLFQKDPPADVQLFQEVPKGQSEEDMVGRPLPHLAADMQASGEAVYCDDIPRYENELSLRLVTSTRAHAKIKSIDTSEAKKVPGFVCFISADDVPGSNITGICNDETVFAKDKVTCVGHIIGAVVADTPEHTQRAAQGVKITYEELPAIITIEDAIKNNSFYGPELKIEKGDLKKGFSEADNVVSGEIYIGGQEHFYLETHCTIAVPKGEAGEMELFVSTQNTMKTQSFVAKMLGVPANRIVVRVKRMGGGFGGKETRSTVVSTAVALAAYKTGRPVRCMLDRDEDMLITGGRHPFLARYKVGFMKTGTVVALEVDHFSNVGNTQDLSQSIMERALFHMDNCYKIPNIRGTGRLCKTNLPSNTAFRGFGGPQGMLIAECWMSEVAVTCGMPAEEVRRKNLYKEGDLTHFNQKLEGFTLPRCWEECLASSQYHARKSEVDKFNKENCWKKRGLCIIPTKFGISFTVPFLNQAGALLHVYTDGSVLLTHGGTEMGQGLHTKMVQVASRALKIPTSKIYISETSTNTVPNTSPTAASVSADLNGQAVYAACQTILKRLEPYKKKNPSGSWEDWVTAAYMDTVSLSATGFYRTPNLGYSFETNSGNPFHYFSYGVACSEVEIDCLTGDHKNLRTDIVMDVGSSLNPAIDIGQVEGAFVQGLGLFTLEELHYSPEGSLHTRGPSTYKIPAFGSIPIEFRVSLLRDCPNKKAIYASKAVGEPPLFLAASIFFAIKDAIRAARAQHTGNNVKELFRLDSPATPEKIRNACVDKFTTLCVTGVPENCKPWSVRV
Description for α-amylase: The α-amylase inhibitory activity (%) value was defined as the percentage decrease in the maltose production rate over the control. […] After 15 min, this mixture was removed from the water bath and diluted with 900 µL of distilled water. The anti-α-amylase activity was determined by measuring the absorbance at 540 nm. Blank incubations were determined as the absorbance produced by samples where the enzyme was replaced with a buffer solution. […] The IC50 values were calculated from the mean values of the percentage of α--amylase inhibition data, determined in triplicate.

For `Cc1ccc2oc(-c3cccc(O)c3)cc(=O)c2c1` [Molecule M16, 3′-hydroxy-6-methylflavone], the IC50 is more than 100 µM in test [1]; more than 50 µM in test [2]; more than 50 µM in test [3] (read-out: Anti ACHE IC50); more than 100 µM in [4]; 2 ± 0.1 µM on xanthine oxidase (XOD) [5]; more than 100 µM with HCT116 cells. The IC50 in the test with MCF7 cells is more than 100 µM; in the test on OVCAR-3 cells it was more than 50 µM; with SKOV-3 cells, 42.1 ± 1.5 µM; at α-amylase, more than 100 µM. In test [6], the “Anti ACHE %” value came to 59.1 ± 1.5%. In test [7], the “Anti SOD %” value is 27.3 ± 3.2%. At xanthine oxidase (XOD) [8], the “Anti XOD %” value is 83.5 ± 3.8%.
Consider `COc1ccc(-c2cc(=O)c3c(O)cc(O[C@@H]4O[C@H](CO[C@@H]5O[C@@H](C)[C@H](O)[C@@H](O)[C@H]5O)[C@@H](O)[C@H](O)[C@H]4O)cc3o2)cc1O` [Molecule M19, 3′, 5,7-trihydroxy-4′-methoxyflavone 7-rutinoside], for which the IC50 in test [1] was more than 100 µM; in test [2] it was more than 50 µM; in test [3] it was more than 100 µM; in test [4], more than 50 µM; at xanthine oxidase (XOD) [5], more than 100 µM; with HCT116 cells it was more than 50 µM. Moreover, the half-inhibitory concentration (IC50) in the test on MCF7 cells is more than 50 µM; in the test with OVCAR-3 cells, more than 50 µM; with SKOV-3 cells, 40.1 ± 0.9 µM; against α-amylase it was 3.7 ± 0.3 µM. In addition, the “Anti ACHE %” value in [6] worked out at 37.7 ± 4.6%. For the same compound, in test [7], the “Anti SOD %” value was 57.8 ± 2.4%. Moreover, the “Anti XOD %” value at xanthine oxidase (XOD) [8] came out at 45.3 ± 3.2%. The “Anti α-Amylase %” value at α-amylase is on record as 60.6 ± 4.8%.
Consider `CC1OC(Oc2c(-c3cc(O)c(O)c(O)c3)oc3cc(O)cc(O)c3c2=O)C(O)C(O)C1O` (centres unmarked) [Molecule M20, myricitrin dihydrate], for which the IC50 in test [1] was more than 100 µM; in test [2] it was more than 100 µM; in [3] it was more than 50 µM; in test [4], more than 100 µM; on xanthine oxidase (XOD) [5], more than 100 µM; in the test on HCT116 cells it was more than 50 µM. The IC50 in the test with MCF7 cells is more than 50 µM; with OVCAR-3 cells it was more than 50 µM; in the test with SKOV-3 cells, more than 50 µM; on α-amylase, more than 100 µM. In addition, the “ABTS Assay %” value in test [2] stood at 20.3 ± 3.2%. Besides, the “Anti ACHE %” value in test [6] amounted to 51.8 ± 3.5%. Further, the “Anti SOD %” value in [7] is given as 42.4 ± 1.1%. Further, the “Anti XOD %” value at xanthine oxidase (XOD) [8] is given as 30.9 ± 2.5%.
On to `COc1cc(O)c2c(=O)cc(-c3ccc(O)cc3)oc2c1` [Molecule M12, 4′,5-dihydroxy-7-methoxyflavone], for which the IC50 in test [1] was more than 100 µM; in test [2], more than 100 µM; in [3], more than 50 µM; in test [4], more than 100 µM; on xanthine oxidase (XOD) [5], 1.2 ± 0.1 µM; in the test on HCT116 cells, 38.5 ± 1.2 µM. Also, the half-inhibitory concentration (IC50) in the test on MCF7 cells is more than 50 µM; in the test with OVCAR-3 cells, 47 ± 1.4 µM; in the test with SKOV-3 cells, 44.7 ± 1.2 µM; on α-amylase, 9 ± 0.1 µM. In [2], the “ABTS Assay %” value stood at 30.3 ± 0.6%. Further, in test [6], the “Anti ACHE %” value is on record as 51.0 ± 0.3%. For the same compound, the “Anti SOD %” value in [7] is 42.1 ± 5.3%. Moreover, the “Anti XOD %” value at xanthine oxidase (XOD) [8] turned out to be 58.2 ± 3.1%. For the same compound, the “Anti α-Amylase %” value on α-amylase is given as 111.7 ± 0.8%.
